{"source": "patent US20180371076A1", "about": "“MATERNAL TH17 CELLS AND PSYCHIATRIC DISORDERS” (New York University, priority 2017, published 2018)", "assay_type_in_all_cases": "in vivo, mouse", "key": {"IFN-β": {"test_system": "IFN-β", "test": "IFN-β ELISA of maternal serum", "conditions": "poly(I:C) at E12.5, 3 h, vs PBS", "description": "(§1) Cell preparation, Flow cytometry, ELISA Embryos at each implantation site were dissected in ice-cold HBSS containing Ca2+ and Mg2+ (Gibco). Myometrium was first peeled off of the decidua and embryos were discarded. Dissected decidual and placental tissues were then minced and enzymatically dissociated in HBSS containing 0.28 Wunsch units (WU)/mL Liberase (Roche) and 30 μg/mL DNase I (Roche) for 30 min at 37° C. with intermittent mixing. Digested tissues were washed in PBS containing 5 mM EDTA and 5% fetal bovine serum and then incubated again in the same buffer for 15 min at 37° C. prior to filtration through a cell strainer. […] Intracellular cytokine staining was performed according to the manufacturer's protocol (Cytofix/Cytoperm buffer set from BD with Pacific Blue-conjugated CD4, FITC or PerCP-Cy5.5-conjugated CD8, APC4 Cy7-conjugated TCR-β, PE-Cy7-conjugated anti-IL-17a, PE-conjugated anti-IFN-γ, PECy7-conjugated anti-CD25 and PE-conjugated Foxp3 (eBioscience). LSR II (BD Biosciences) and FlowJo software (Tree Star) were used for flow cytometry and analysis. Dead cells were excluded using the Live/Dead fixable aqua dead cell stain kit (Invitrogen). For ELISA with sera and placenta/decidua extract, IL-6 (Ebioscience), IL-17a, TNF-α, IL-1β, IFN-β (Biolgened), and IL-10 (BD) were measured according to the manufacturer's protocol."}, "IL-1β": {"test_system": "IL-1β", "test": "IL-1β ELISA of maternal serum", "conditions": "poly(I:C) at E12.5, 3 h, vs PBS", "description": "as §1"}, "IL-10": {"test_system": "IL-10", "test": "IL-10 ELISA of maternal serum and placenta/decidua extracts", "conditions": "poly(I:C) at E12.5", "description": "Cell preparation, Flow cytometry, ELISA. Embryos at each implantation site were dissected in ice-cold HBSS containing Ca^2+ and Mg^2+. Myometrium was first peeled off of the decidua and embryos were discarded. Dissected decidual and placental tissues were then minced and enzymatically dissociated in HBSS containing 0.28 Wunsch units (WU)/mL Liberase (Roche) and 30 μg/ml DNase I (Roche) for 30 min at 37° C. with intermittent mixing. Digested tissues were washed in PBS containing 5 mM EDTA and 5% fetal bovine serum and then incubated again in the same buffer for 15 min at 37° C. prior to filtration through a cell strainer. After separation on a discontinuous 40% & 80% Percoll gradient, the mononuclear cell fraction was treated with ACK lysis buffer (Lonza). Mononuclear cells (1×10^6 cells/mL) were stimulated with phorbol 12-myristate 13-acetate (PMA, 50 ng/mL; Sigma), ionomycin (500 ng/mL; Sigma) in T cell media: RPMI 1640 (Invitrogen) supplemented with 10% (v/v) heat-inactivated FBS (Hyclone), 50 U penicillin-streptomycin (Invitrogen), 2 mM glutamine, and 50 μM β-mercaptoethanol. Cell culture supernatant was used for ELISA analyses. For flow cytometry, cells were incubated for 5 h with PMA, ionomycin and GolgiStop (BD). […] For ELISA with sera and placenta/decidua extract, IL-6 (Ebioscience), IL-17a (Biolgened), and IL-10 (BD) were measured according to the manufacturer's protocol. […]"}, "Th17 cells": {"test_system": "Th17 cells", "test": "Flow cytometry of placenta/decidua CD4+ T cells: Th17", "conditions": "poly(I:C) vs PBS treatment, pregnant dams", "description": "as §1"}, "[1]": {"test_system": "cortex of the fetal brain", "test": "Cortical development: SATB2/TBR1/CTIP2 immunohistochemistry of fetal and adult offspring brain", "conditions": "offspring of MIA vs PBS-treated mothers"}}, "note": "“Also recorded” adds a separate entry of the source."}
{"substance": "poly(I:C)", "values": [{"measurement": "serum IFN-β", "setting": "IFN-β", "value": "strong induction"}, {"measurement": "serum IL-1β", "setting": "IL-1β", "value": "strong induction"}, {"measurement": "IL-10 in serum and placenta/decidua extracts", "setting": "IL-10", "value": "not affected; also recorded: did not affect"}, {"measurement": "placenta/decidua-associated Th17 cells", "setting": "Th17 cells", "value": "increased"}, {"measurement": "cortical organization by Golgi staining", "setting": "[1]", "value": "disorganized cortical regions"}]}
